From ChEMBL document CHEMBL4052608, “Hes1-Binding Compounds Isolated by Target Protein Oriented Natural Products Isolation (TPO-NAPI)” (2017)
Activity calls are given as the source filed them. The calls are words filed in the database; no cut-off is given here.

Experiments:
MEB5 [1] = experiment: Induction of neuronal differention in mouse MEB5 neurospheres at 10 uM after 4 days by DAPI dye-based fluorescence confocal laser scaning microscopic analysis; type: functional
MEB5 [2] = experiment: Increase in neuronal differention in mouse MEB5 neurospheres at 10 uM after 4 days by DAPI dye-based fluorescence confocal laser scaning microscopic analysis; type: functional
MEB5 [3] = experiment: Induction of neuronal differention in mouse MEB5 neurospheres at 100 uM after 4 days by DAPI dye-based fluorescence confocal laser scaning microscopic analysis; type: functional, cell-based
[4] = biological target: T1, Transcription factor HES-1 (Rattus norvegicus) (UniProt Q04666); experiment: Binding affinity to rat GST-tagged truncated HES1 (47 to 281 residues) expressed in Escherichia coli JM109 after 2 hrs by HPLC based bead assay
T1 sequence (whole entry): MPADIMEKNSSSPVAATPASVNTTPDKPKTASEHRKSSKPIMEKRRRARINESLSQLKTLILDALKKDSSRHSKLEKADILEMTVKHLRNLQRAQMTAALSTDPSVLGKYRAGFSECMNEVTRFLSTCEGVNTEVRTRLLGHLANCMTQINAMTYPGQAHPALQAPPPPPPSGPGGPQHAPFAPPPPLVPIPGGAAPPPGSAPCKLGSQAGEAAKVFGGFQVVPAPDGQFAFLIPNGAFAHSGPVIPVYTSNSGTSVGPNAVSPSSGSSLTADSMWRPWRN

[5] = biological target: T1, Transcription factor HES-1 (Rattus norvegicus); experiment: Binding affinity to rat GST-tagged truncated HES1 (1 to 95 residues) expressed in Escherichia coli JM109 after 2 hrs by HPLC based bead assay
[6] = biological target: T1, Transcription factor HES-1 (Rattus norvegicus); experiment: Binding affinity to rat GST-tagged truncated HES1 (151 to 281 residues) expressed in Escherichia coli JM109 after 2 hrs by HPLC based bead assay
[7] = biological target: T1, Transcription factor HES-1 (Rattus norvegicus); experiment: Binding affinity to rat GST-tagged truncated HES1 (47 to 156 residues) expressed in Escherichia coli JM109 after 2 hrs by HPLC based bead assay

Row | Activity [4] | Activity [5] | Activity [6] | Activity [7] | Compound | Activity (MEB5 [1]) | Activity (MEB5 [2]) | Activity (MEB5 [3])
1 |  |  |  |  | C/C=C/C=C/C=C/[C@@H]1NCC[C@@H](O)[C@H]1C | 35% | 34% | 
2 |  |  |  |  | CCCC(CCC)C(=O)O |  |  | Active
3 | Active | Active | Active | Active | CC1=C\C=C\C=C\CC(C)NC(=O)/C=C/C=C/C=C/C(C)C(O)C(O)C(O)CC(O)/C=C\C=C\1 (centres undefined) | 30% | 17% | 
